# Source: PMC12803606, “A metabolic comparison of GIPR agonism versus GIPR antagonism in male mice” (Diabetes, Obesity & Metabolism, 2025)
# Columns and labels:
# [1] = system: osteoblastic and osteoclastic activity; settings: cited from earlier work
# glucagon secretion = settings: cited from earlier work
# Text: We next investigated the effects of GIP108 and NN‐GIPR‐Ant administration on insulin sensitivity.
# [2] = human study, 6‐day GIP infusion; cited from earlier work
# Text: We also investigated the effects of GIPR agonism and antagonism on liver triglyceride content.
# human adipocytes = settings: acute administration; ex vivo and in vivo glucose uptake; cited from earlier work
# Text: Another important focus of this study was the effect of GIP108 and NN‐GIPR‐Ant administration on insulin sensitivity.
# CTX = settings: rodent models and humans; cited from earlier work
# mouse GIPR = test: HTRF cAMP assay, AD293 cells transiently transfected with mGIPR; type: cell-based; settings: 30 min, n = 3
# Text: For the antagonist we used a long‐acting GIPR antagonist, named throughout as NN‐GIPR‐Ant, previously characterised by Yang et al.[7] We first confirmed the actions of NN‐GIPR‐Ant as a mouse GIPR antagonist, performing in vitro cAMP assays in AD293 cells, a human embryonic kidney cell line commonly used in G‐protein coupled receptor research due to rapid division and ease of receptor transfection.
# (A–C) Amino acid sequences of hGIP (A), GIP108 (B) and NN‐GIPR‐Ant (C). AIB = 2‐aminoisobutyric acid. Side chains denote fatty acid tails. (D–F) cAMP measurements in AD293 cells transiently transfected with the mGIPR (D), mGLP‐1R (E) and mGCGR (F) and stimulated for 30 min with the indicated peptide (n = 3), with three parameter curve fits plotted. (G, H) 60‐min intraperitoneal glucose tolerance test in lean mice (n = 8). (G) Plasma glucose over time with glucose ± hGIP injected at t = 0 and NN‐GIPR‐Ant injected at t = −120 min, analysed using two‐way ANOVA with time and subgroup as co‐variables. (H) Glucose AUC derived from the time course in (H), analysed using a one‐way ANOVA. Dunnett's test was used to correct for multiple comparisons against vehicle control. […] The colour of the star denotes which group is statistically different compared to vehicle control. […]
# GIPR = test: Intraperitoneal glucose tolerance test in lean mice, hGIP with NN-GIPR-Ant (in vivo antagonism); parameters: species or system mouse; settings: n = 8, hGIP 50 nmol/kg with glucose 2 g/kg at t = 0
# Method: (A–C) Amino acid sequences of hGIP (A), GIP108 (B) and NN‐GIPR‐Ant (C). AIB = 2‐aminoisobutyric acid. Side chains denote fatty acid tails. (D–F) cAMP measurements in AD293 cells transiently transfected with the mGIPR (D), mGLP‐1R (E) and mGCGR (F) and stimulated for 30 min with the indicated peptide (n = 3), with three parameter curve fits plotted. (G, H) 60‐min intraperitoneal glucose tolerance test in lean mice (n = 8). (G) Plasma glucose over time with glucose ± hGIP injected at t = 0 and NN‐GIPR‐Ant injected at t = −120 min, analysed using two‐way ANOVA with time and subgroup as co‐variables. (H) Glucose AUC derived from the time course in (H), analysed using a one‐way ANOVA. Dunnett's test was used to correct for multiple comparisons against vehicle control. […] The colour of the star denotes which group is statistically different compared to vehicle control.
# All animal procedures were approved by the British Home Office under the UK Animals (Scientific Procedures) Act 1986, and Amendment Regulations, 2012 and approved by the Imperial College London Animal Welfare and Ethical Review Body. Wild type male C57BL/6J mice (8-14 weeks; Charles River, UK) were used. […]
# Mice were fasted at 08:00. […] Total glucose AUC was calculated by trapezoidal rule using y=0 as baseline. Glucose readings were measured in mmol/L using the same ISO15197-compliant GlucoRx Nexus (GlucoRx, Guildford, UK) glucometer.
# humans = settings: ref 12 (as cited in b3; abstract prints none); cited from earlier work
substance,measurement,setting,value
glucose‐dependent insulinotropic polypeptide [GIP],osteoblastic and osteoclastic activity,[1],increases osteoblastic and suppresses osteoclastic activity
same,glucagon secretion in hypoglycaemia,glucagon secretion,potently stimulate glucagon secretion in hypoglycaemia
same,liver fat,[2],increased liver fat
same,insulin sensitising effect in human adipocytes,human adipocytes,increasing adipocyte glucose uptake both ex vivo and in vivo
same,"CTX levels, acute",CTX,acutely lowers CTX levels
"hGIP: hGIP(1‐42); sequence in Figure 1A (YAEGTFISDYSIAMDKIHQQDFVNWLLAQKGKKNDWKHNITQ; Gastric inhibitory polypeptide; UniProt P09681 52-93, looked up)",stimulation of cAMP at mouse GIPR,mouse GIPR,ability to stimulate cAMP
same,improvement of glucose tolerance by hGIP,GIPR,improve glucose tolerance
maridebart cafraglutide: Amgen's high‐affinity GIPR antagonist antibody with GLP‐1R agonist conjugate arms,weight loss effects in humans,humans,significant weight loss effects in humans
